For one assay, the system named is mPTP-active Daoy cell. Briefly: Inhibitory effect on mPTP-active Daoy cell (Promega CellTiter-Glo, intracellular ATP). Format: cell-based, human. The following applies: Homo sapiens, Daoy, Daoy cell transfected with empty virus vector without PPIF shRNA. For orientation: In ATP-based viability assays light output follows the ATP content of the culture.
For another assay, the system named is mPTP-inactive Daoy cell. Description: Inhibitory effect on mPTP-inactive Daoy cell (PPIF shRNA; Promega CellTiter-Glo, intracellular ATP). Format: cell-based, human. The following applies: Homo sapiens, Daoy, Daoy cell transfected with virus vector carrying PPIF shRNA. From the text:
The activity of mitochondria permeability transition pore (mPTP) was regulated by the PPIF protein. […] PPIF protein activity was restricted by the expression level of PPIF protein in cell.

Broadly, the IC50 is the point on the concentration scale where inhibition reaches its midpoint. Low readings indicate higher potency, high ones lower potency.

As for `ClC(Cl)(Cl)C1c2c(ccc3c2OCO3)C(CCCc2ccccc2)=C2c3cc4c(cc3CCN21)OCO4` (centres unmarked) [AB35428], the values for the IC50 with mPTP-active Daoy cell and in the assay with mPTP-inactive Daoy cell were 12.9 µM and 5.61 µM, respectively.

For the compound `COc1ccc2c(c1OCCCCN)C(C)N1CCc3cc4c(cc3C1=C2)OCO4` (centres unmarked) [AB35429], the IC50 in the assay on mPTP-active Daoy cell was found to be 5.28 µM; in the assay with mPTP-inactive Daoy cell, 2.23 µM.

As for `COc1ccc2c(c1OCCCBr)C(C1CCCC1)N1CCc3cc4c(cc3C1=C2)OCO4` (centres unmarked) [AB35430], the IC50 came out at 5.07 µM in the assay with mPTP-active Daoy cell and 2.38 µM with mPTP-inactive Daoy cell.

As for `COc1ccc2c(c1OCCCCl)C(C1CCCC1)N1CCc3cc4c(cc3C1=C2)OCO4` (centres unmarked) [AB35434], the IC50 in the assay with mPTP-active Daoy cell came out at 5.21 µM; in the assay with mPTP-inactive Daoy cell, 2.48 µM.

On to `COc1ccc2c(c1OC)C(C1CCCC1)N1CCc3cc4c(cc3C1=C2CCCc1ccccc1)OCO4` (centres unmarked) [AB35436], for which the IC50 in the assay on mPTP-active Daoy cell turned out to be 4.8 µM; in the assay with mPTP-inactive Daoy cell it was 2.28 µM.

On to `COc1ccc2c(c1OC/C=C(\C)CCC=C(C)C)C(C1CCCC1)N1CCc3cc4c(cc3C1=C2)OCO4` (centres unmarked) [AB35438], for which the IC50 worked out at 1.86 µM with mPTP-active Daoy cell and 0.84 µM in the assay on mPTP-inactive Daoy cell.

Consider `COc1ccc2c(c1OCCCCCCCl)C(C1CCCC1)N1CCc3cc4c(cc3C1=C2)OCO4` (centres unmarked) [AB35440], for which the IC50 came out at 2.36 µM in the assay on mPTP-active Daoy cell and 1.14 µM with mPTP-inactive Daoy cell.

Regarding `COc1ccc2c(c1OCCCCl)C(C(Cl)(Cl)Cl)N1CCc3cc4c(cc3C1=C2)OCO4` (centres unmarked) [AB35441], the figures for the IC50 in the assay on mPTP-active Daoy cell and in the assay with mPTP-inactive Daoy cell were 2.88 µM and 1.27 µM, respectively.

As to `COc1ccc2c(c1OCCCN1CCCCC1)C(C)N1CCc3cc4c(cc3C1=C2)OCO4` (centres unmarked) [AB35442], the IC50 with mPTP-active Daoy cell worked out at 10.7 µM; in the assay with mPTP-inactive Daoy cell, 11.4 µM.

Consider `COc1ccc2c(c1OCCN1CCCCC1)C(C)N1CCc3cc4c(cc3C1=C2)OCO4` (centres unmarked) [AB35443], for which the IC50 worked out at 30 µM in the assay on mPTP-active Daoy cell and 31 µM in the assay with mPTP-inactive Daoy cell.

For `COc1ccc2c(c1OC)C(C(Cl)(Cl)Cl)N1CCc3cc4c(cc3C1=C2CCc1ccccc1)OCO4` (centres unmarked) [AB35444], the IC50 with mPTP-active Daoy cell stood at 6.85 µM; in the assay with mPTP-inactive Daoy cell it was 3.33 µM.

`CCCCN1CCN(c2c(OC)ccc3c2C(C(Cl)(Cl)Cl)N2CCc4cc5c(cc4C2=C3)OCO5)CC1` (centres unmarked) [AB35445]: the IC50 was determined as 12.1 µM in the assay on mPTP-active Daoy cell and 6.37 µM in the assay on mPTP-inactive Daoy cell.

As to `COc1ccc2c(c1OCCN(C)C)C(C(Cl)(Cl)Cl)N1CCc3cc4c(cc3C1=C2)OCO4` (centres unmarked) [AB35446], the results for the IC50 in the assay with mPTP-active Daoy cell and with mPTP-inactive Daoy cell were 16.2 µM and 17.6 µM, respectively.

Consider `COc1ccc2c(c1OC)C(C(Cl)(Cl)Cl)N1CCc3cc4c(cc3C1=C2Cc1ccccn1)OCO4` (centres unmarked) [AB35447], for which the IC50 is 22.9 µM in the assay with mPTP-active Daoy cell and 25.7 µM in the assay with mPTP-inactive Daoy cell.

In the case of `COc1ccc2c(c1OC)C(C1CCCC1)N1CCc3cc4c(cc3C1=C2CCc1ccccc1)OCO4` (centres unmarked) [AB35448], the IC50 in the assay with mPTP-active Daoy cell is 3.53 µM; in the assay on mPTP-inactive Daoy cell, 1.72 µM.

`COc1ccc2c(c1N1CCC(C)CC1)C(C(Cl)(Cl)Cl)N1CCc3cc4c(cc3C1=C2)OCO4` (centres unmarked) [AB35453]: the values for the IC50 in the assay on mPTP-active Daoy cell and with mPTP-inactive Daoy cell were 1.23 µM and 0.43 µM, respectively.

Take `COc1ccc2c(c1OCCCCOc1ccccc1)C(C1CCCC1)N1CCc3cc4c(cc3C1=C2)OCO4` (centres unmarked) [AB35454]: the values for the IC50 with mPTP-active Daoy cell and in the assay on mPTP-inactive Daoy cell were 2.96 µM and 1.28 µM, respectively.

For `COc1ccc2c(c1OCCCCCCNC(=O)OC(C)(C)C)C(C1CCCC1)N1CCc3cc4c(cc3C1=C2)OCO4` (centres unmarked) [AB35455], the values for the half-inhibitory concentration (IC50) with mPTP-active Daoy cell and in the assay with mPTP-inactive Daoy cell were 3.51 µM and 1.47 µM, respectively.

As to `COc1ccc2c(c1OCCCCl)C(C)N1CCc3cc4c(cc3C1=C2)OCO4` (centres unmarked) [AB35456], the IC50 in the assay with mPTP-active Daoy cell stood at 5.77 µM; in the assay with mPTP-inactive Daoy cell it was 2.76 µM.

Consider `COc1ccc2c(c1NCCc1ccccc1)C(C1CCCC1)N1CCc3cc4c(cc3C1=C2)OCO4` (centres unmarked) [AB35457], for which the IC50 turned out to be 3.25 µM with mPTP-active Daoy cell and 1.52 µM with mPTP-inactive Daoy cell.

For `COc1ccc2c(c1OCCCCCCBr)C(C1CCCC1)N1CCc3cc4c(cc3C1=C2)OCO4` (centres unmarked) [AB35458], the IC50 in the assay on mPTP-active Daoy cell was found to be 3.85 µM; with mPTP-inactive Daoy cell, 1.84 µM.

As for `COc1ccc2c(c1OC(=O)CC13CC4CC(CC(C4)C1)C3)C(C1CCCC1)N1CCc3cc4c(cc3C1=C2)OCO4` (centres unmarked) [AB35459], the values for the IC50 with mPTP-active Daoy cell and in the assay on mPTP-inactive Daoy cell were 12.5 µM and 6.18 µM, respectively.

For `COc1ccc2c(c1OC)C(C1CCCC1)N1CCc3cc4c(cc3C1=C2Cc1ccc(C(C)C)cc1)OCO4` (centres unmarked) [AB35460], the IC50 in the assay with mPTP-active Daoy cell was found to be 1.96 µM; with mPTP-inactive Daoy cell, 0.78 µM.

With `COc1ccc2c(c1N1CCC(NC(=O)OC(C)(C)C)CC1)C(C(Cl)(Cl)Cl)N1CCc3cc4c(cc3C1=C2)OCO4` (centres unmarked) [AB35465], the IC50 was found to be 5.43 µM with mPTP-active Daoy cell and 2.68 µM in the assay on mPTP-inactive Daoy cell.

As to `COc1ccc2c(c1OCCCBr)C(C(Cl)(Cl)Cl)N1CCc3cc4c(cc3C1=C2)OCO4` (centres unmarked) [AB35466], the results for the IC50 with mPTP-active Daoy cell and with mPTP-inactive Daoy cell were 2.21 µM and 0.91 µM, respectively.

Consider `C1=C2c3cc4c(cc3CCN2C(C2CCCC2)c2cc3c(cc21)OCO3)OCO4` (centres unmarked) [AB35467], for which the IC50 in the assay on mPTP-active Daoy cell was 16.1 µM; with mPTP-inactive Daoy cell, 8.21 µM.

For `COc1ccc2c(c1OC)C(C)N1CCc3cc4c(cc3C1=C2CCCCc1ccccc1)OCO4` (centres unmarked) [AB35468], the IC50 amounted to 2.29 µM in the assay with mPTP-active Daoy cell and 1.05 µM with mPTP-inactive Daoy cell.

Consider `COc1ccc2c(c1OC)C(C(Cl)(Cl)Cl)N1CCc3cc4c(cc3C1=C2CCCCc1ccccc1)OCO4` (centres unmarked) [AB35469], for which the values for the IC50 in the assay on mPTP-active Daoy cell and in the assay with mPTP-inactive Daoy cell were 2.41 µM and 1.11 µM, respectively.
